# From patent US20260070945A1, “MACROCYCLIC IMMUNOMODULATORS” (Bristol-Myers Squibb Company, priority 2022, published 2026)
# Where a SMILES comes first, the peptide text is derived from it. Bridges are numbered along the chain shown (N, C = ends). [ ]: non-standard residue; d: D form. The star is where a group is joined. ξ: configuration not given here. Phe(4-COOH) = N[C@@H](Cc1ccc(C(=O)O)cc1)C(=O)O; Bip = N[C@@H](Cc1ccc(-c2ccccc2)cc1)C(=O)O; Phe(3-Me) = Cc1cccc(C[C@H](N)C(=O)O)c1; NH(CH2)12COOH = O=C(O)CCCCCCCCCCCCN*; Val(3-OH) = CC(C)(O)[C@H](N)C(=O)O; hArg = N=C(N)NCCCC[C@H](N)C(=O)O; 4Pal = N[C@@H](Cc1ccncc1)C(=O)O; Cha = N[C@@H](CC1CCCCC1)C(=O)O; Cit = NC(=O)NCCC[C@H](N)C(=O)O; Ile(3ξ) = CCC(C)[C@H](N)C(=O)O; Thr(3ξ) = CC(O)[C@H](N)C(=O)O; 12Ado = NCCCCCCCCCCCC(=O)O; hSer = N[C@@H](CCO)C(=O)O; Carboxymethyl = O=C(O)C*; NMeA = CN[C@@H](C)C(=O)O; Orn = NCCC[C@H](N)C(=O)O; Aun = NCCCCCCCCCCC(=O)O; Dab = NCC[C@H](N)C(=O)O; AEEA = NCCOCCOCC(=O)O
# Molecular target: T1, PD-1/PD-L1 interaction (PE-labeled human PD-L1-Ig binding to Jurkat cell line over-expressing human PD-1) (Homo sapiens, UniProt Q15116)
# T1 construct: expressed in transfected cells; host or cells: Jurkat
# T1 sequence (Q15116 25-288): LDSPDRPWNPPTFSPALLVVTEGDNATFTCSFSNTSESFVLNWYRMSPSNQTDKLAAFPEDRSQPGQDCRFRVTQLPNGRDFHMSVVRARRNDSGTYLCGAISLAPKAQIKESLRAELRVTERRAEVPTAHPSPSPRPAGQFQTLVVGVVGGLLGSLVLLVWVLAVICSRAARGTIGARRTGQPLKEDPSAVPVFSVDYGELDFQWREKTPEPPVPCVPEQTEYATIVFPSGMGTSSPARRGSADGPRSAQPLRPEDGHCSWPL
# Test: Jurkat-PD-1 Cell Binding High-Content Screening Assay (CBA)
# Details: Jurkat-hPD-1 cells, PE-labeled PD-L1-Ig 20 nM final; read-out: Jurkat HPD1 PDL1 IC50
# Summary of the method: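 High-content imaging read-out of PE-PD-L1-Ig binding (20 nM final, 1 h) to Jurkat-hPD-1 cells, after 2 h compound exposure at 37 °C in DMEM with 10% FCS. Nuclei counterstained with Hoechst 33342 after paraformaldehyde fixation.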
row,IC50 [nM],Structure (SMILES)
1,69.5,CC(C)C[C@@H]1NC(=O)[C@H](Cc2c[nH]c3ccccc23)NC(=O)[C@H](CC(=O)O)NC(=O)[C@H](Cc2ccncc2)NC(=O)[C@H](Cc2ccc(OCC(=O)O)cc2)NC(=O)CSC[C@@H](C(=O)N[C@@H](CCCN)C(=O)NCCCCCCCCCCC(=O)O)NC(=O)[C@@H](CCC(N)=O)NC(=O)[C@H](C(C)C)NC(=O)[C@H](CC2CCCCC2)NC(=O)[C@H](CCN)NC(=O)[C@@H](CC(C)C)NC(=O)[C@H](C)N(C)C(=O)[C@H](C(C)C)NC(=O)[C@H](Cc2ccc(-c3ccccc3)cc2)NC1=O [Example 1344] ({CH2CO}-Y(Carboxymethyl)[4Pal]DWL[Bip]V[NMeA][dL][Dab][Cha]V[dQ]C[Orn][Aun]-OH; thioether N-14)
2,5.6,Cc1cccc(C[C@@H]2NC(=O)[C@H](CC(=O)O)NC(=O)[C@H](Cc3ccc(OCC(=O)O)cc3)NC(=O)[C@H](CCCNC(=N)N)NC(=O)CSC[C@@H](C(=O)N[C@@H](CCN)C(=O)NCCCCCCCCCCC(=O)O)NC(=O)[C@H](CCO)NC(=O)[C@H](C(C)C)NC(=O)[C@H](CC3CCCCC3)NC(=O)[C@H](CCN)NC(=O)[C@@H](CC(C)C)NC(=O)[C@H](C)N(C)C(=O)[C@H](Cc3ccc(OCC(=O)O)cc3)NC(=O)[C@H](Cc3ccc(-c4ccccc4)cc3)NC(=O)[C@H](Cc3ccc(C(=O)O)cc3)NC2=O)c1 [Example 2350] ({CH2CO}-RY(Carboxymethyl)D[Phe(3-Me)][Phe(4-COOH)][Bip]Y(Carboxymethyl)[NMeA][dL][Dab][Cha]V[hSer]C[Dab][Aun]-OH; thioether N-14)
3,11.6,CC(C)C[C@@H]1NC(=O)[C@H](Cc2c[nH]c3ccccc23)NC(=O)[C@H](CC(=O)O)NC(=O)[C@H](Cc2ccc(OCC(=O)O)cc2)NC(=O)[C@H](CCCCNC(=N)N)NC(=O)CSC[C@@H](C(=O)NCC(=O)NCCOCCOCC(=O)N[C@@H](CCCN)C(=O)NCCCCCCCCCCCC(=O)O)NC(=O)[C@H](CO)NC(=O)[C@H](C(C)C)NC(=O)[C@H](CC2CCCCC2)NC(=O)[C@H](CCN)NC(=O)[C@@H](CC(C)C)NC(=O)[C@H](C)N(C)C(=O)[C@H](C(C)C)NC(=O)[C@H](Cc2ccc(-c3ccccc3)cc2)NC1=O [Example 2123] ({CH2CO}-[hArg]Y(Carboxymethyl)DWL[Bip]V[NMeA][dL][Dab][Cha]VSCG[AEEA][Orn][12Ado]-OH; thioether N-14)
4,110,CCC(C)[C@@H]1NC(=O)[C@H](CC(C)C)NC(=O)[C@H](CCN)NC(=O)[C@@H](CC(C)C)NC(=O)[C@H](C)N(C)C(=O)[C@H](C(C)CC)NC(=O)[C@H](Cc2ccc(-c3ccccc3)cc2)NC(=O)[C@H](C(C)CC)NC(=O)[C@H](Cc2c[nH]c3ccccc23)NC(=O)[C@H](CC(=O)O)NC(=O)[C@H](Cc2ccc(OCC(=O)O)cc2)NC(=O)[C@H](C(C)O)NC(=O)CSC[C@@H](C(=O)N[C@H](CC(N)=O)C(=O)NCCOCCOCC(=O)NCCCCCCCCCCC(=O)O)NC(=O)[C@H](CO)NC1=O (stereo partly drawn) [Example 2080] ({CH2CO}-[Thr(3ξ)]Y(Carboxymethyl)DW[Ile(3ξ)][Bip][Ile(3ξ)][NMeA][dL][Dab]L[Ile(3ξ)]SC[dN][AEEA][Aun]-OH; thioether N-14)
5,15.4,CC(C)C[C@@H]1NC(=O)[C@H](Cc2c[nH]c3ccccc23)NC(=O)[C@H](CC(=O)O)NC(=O)[C@H](Cc2ccncc2)NC(=O)[C@H](Cc2ccc(OCC(=O)O)cc2)NC(=O)CSC[C@@H](C(=O)N[C@@H](CCCCN)C(=O)NCCCCCCCCCCC(=O)O)NC(=O)[C@H](CO)NC(=O)[C@H](C(C)C)NC(=O)[C@H](CC2CCCCC2)NC(=O)[C@H](CCN)NC(=O)[C@@H](CC(C)C)NC(=O)[C@H](C)N(C)C(=O)[C@H](C(C)C)NC(=O)[C@H](Cc2ccc(-c3ccccc3)cc2)NC1=O [Example 1085] ({CH2CO}-Y(Carboxymethyl)[4Pal]DWL[Bip]V[NMeA][dL][Dab][Cha]VSCK[Aun]-OH; thioether N-14)
6,6.7,CC(C)C[C@@H]1NC(=O)[C@H](Cc2c[nH]c3ccccc23)NC(=O)[C@H](CC(=O)O)NC(=O)[C@H](Cc2ccc(C(=O)O)cc2)NC(=O)[C@H](Cc2ccc(OCC(=O)O)cc2)NC(=O)CSC[C@@H](C(=O)N[C@@H](CCN)C(=O)NCCOCCOCC(=O)NCCCCCCCCCCC(=O)O)NC(=O)[C@H](Cc2cnc[nH]2)NC(=O)[C@H](C(C)(C)O)NC(=O)[C@H](CC2CCCCC2)NC(=O)[C@H](CCN)NC(=O)[C@@H](CC(C)C)NC(=O)[C@H](C)N(C)C(=O)[C@H](C(C)C)NC(=O)[C@H](Cc2ccc(-c3ccccc3)cc2)NC1=O [Example 1129] ({CH2CO}-Y(Carboxymethyl)[Phe(4-COOH)]DWL[Bip]V[NMeA][dL][Dab][Cha][Val(3-OH)]HC[Dab][AEEA][Aun]-OH; thioether N-14)
7,13,CC(C)C[C@@H]1NC(=O)[C@H](Cc2c[nH]c3ccccc23)NC(=O)[C@H](CC(=O)O)NC(=O)[C@H](Cc2ccncc2)NC(=O)[C@H](Cc2ccc(OCC(=O)O)cc2)NC(=O)CSC[C@@H](C(=O)NCC(=O)NCCOCCOCC(=O)N[C@@H](CCCCN)C(=O)NCCCCCCCCCCC(=O)O)NC(=O)[C@H](CCCNC(N)=O)NC(=O)[C@H](C(C)C)NC(=O)[C@H](CC2CCCCC2)NC(=O)[C@H](CCN)NC(=O)[C@@H](CC(C)C)NC(=O)[C@H](C)N(C)C(=O)[C@H](C(C)C)NC(=O)[C@H](Cc2ccc(-c3ccccc3)cc2)NC1=O [Example 2172] ({CH2CO}-Y(Carboxymethyl)[4Pal]DWL[Bip]V[NMeA][dL][Dab][Cha]V[Cit]CG[AEEA]K[Aun]-OH; thioether N-14)
8,101,CC(C)C[C@H]1NC(=O)[C@H](C)N(C)C(=O)[C@H](Cc2ccc(OCC(=O)O)cc2)NC(=O)[C@H](Cc2ccc(-c3ccccc3)cc2)NC(=O)[C@H](Cc2ccc(OCC(=O)O)cc2)NC(=O)[C@H](Cc2c[nH]c3ccccc23)NC(=O)[C@H](CC(=O)O)NC(=O)[C@H](Cc2ccc(OCC(=O)O)cc2)NC(=O)[C@H]([C@@H](C)O)NC(=O)CSC[C@@H](C(=O)N[C@@H](CCN)C(=O)NCCOCCOCC(=O)NCCCCCCCCCCC(=O)O)NC(=O)[C@H]([C@@H](C)O)NC(=O)[C@H](C(C)C)NC(=O)[C@H](CC2CCCCC2)NC(=O)[C@H](CC(N)=O)NC1=O [Example 1383] ({CH2CO}-TY(Carboxymethyl)DWY(Carboxymethyl)[Bip]Y(Carboxymethyl)[NMeA][dL]N[Cha]VTC[Dab][AEEA][Aun]-OH; thioether N-14)
9,24,CC(C)C[C@@H]1NC(=O)[C@H](Cc2c[nH]c3ccccc23)NC(=O)[C@H](CC(=O)O)NC(=O)[C@H](Cc2ccc(C(=O)O)cc2)NC(=O)[C@H](Cc2ccc(OCC(=O)O)cc2)NC(=O)CSC[C@@H](C(=O)N[C@@H](CCCN)C(=O)NCCCCCCCCCCC(=O)O)NC(=O)[C@H](CCC(=O)O)NC(=O)[C@H](C(C)C)NC(=O)[C@H](CC2CCCCC2)NC(=O)[C@H](CCN)NC(=O)[C@@H](CC(C)C)NC(=O)[C@H](C)N(C)C(=O)[C@H](C(C)C)NC(=O)[C@H](Cc2ccc(-c3ccccc3)cc2)NC1=O [Example 1328] ({CH2CO}-Y(Carboxymethyl)[Phe(4-COOH)]DWL[Bip]V[NMeA][dL][Dab][Cha]VEC[Orn][Aun]-OH; thioether N-14)

# Same assay, conditions: PE-labeled PD-L1-Ig 20 nM final, Jurkat-hPD-1 cells; read-out: Jurkat HPD1 PDL1 IC50
row,IC50 [nM],Structure (SMILES)
1,13.1,Cc1cccc(C[C@@H]2NC(=O)[C@H](CC(=O)O)NC(=O)[C@H](Cc3ccc(C(=O)O)cc3)NC(=O)[C@H](CCN)NC(=O)CSC[C@@H](C(=O)N[C@@H](CCN)C(=O)NCCOCCOCC(=O)NCCOCCOCC(=O)NCCCCCCCCCCC(=O)O)NC(=O)[C@H](CCC(=O)O)NC(=O)[C@H](C(C)(C)O)NC(=O)[C@H](CC3CCCCC3)NC(=O)[C@H](CCN)NC(=O)[C@@H](CC(C)C)NC(=O)[C@H](C)N(C)C(=O)[C@H](Cc3ccc(C(=O)O)cc3)NC(=O)[C@H](Cc3ccc(-c4ccccc4)cc3)NC(=O)[C@H](Cc3ccc(C(=O)O)cc3)NC2=O)c1 [Example 2519] ({CH2CO}-[Dab][Phe(4-COOH)]D[Phe(3-Me)][Phe(4-COOH)][Bip][Phe(4-COOH)][NMeA][dL][Dab][Cha][Val(3-OH)]EC[Dab][AEEA][AEEA][Aun]-OH; thioether N-14)
2,24.9,CCC(C)[C@@H]1NC(=O)[C@H](Cc2ccc(-c3ccccc3)cc2)NC(=O)[C@H](C(C)C)NC(=O)[C@H](Cc2c[nH]c3ccccc23)NC(=O)[C@H](CC(=O)O)NC(=O)[C@H](Cc2ccc(C(=O)O)cc2)NC(=O)[C@H](Cc2cnc[nH]2)NC(=O)CSC[C@@H](C(=O)N[C@@H](CCN)C(=O)N[C@@H](CCC(=O)NCCCCCCCCCCCCC(=O)O)C(=O)O)NC(=O)[C@H](CCC(=O)O)NC(=O)[C@H](C(C)(C)O)NC(=O)[C@H](CC2CCCCC2)NC(=O)[C@H](CCN)NC(=O)[C@@H](CC(C)C)NC(=O)[C@H](C)N(C)C1=O (stereo partly drawn) [Example 2632] ({CH2CO}-H[Phe(4-COOH)]DWV[Bip][Ile(3ξ)][NMeA][dL][Dab][Cha][Val(3-OH)]EC[Dab]E(NH(CH2)12COOH)-OH; thioether N-14)
3,108,Cc1cccc(C[C@@H]2NC(=O)[C@H](CC(=O)O)NC(=O)[C@H](Cc3ccc(C(=O)O)cc3)NC(=O)[C@H](Cc3ccncc3)NC(=O)CSC[C@@H](C(=O)N[C@@H](CCN)C(=O)NCCOCCOCC(=O)NCCOCCOCC(=O)NCCCCCCCCCCC(=O)O)NC(=O)[C@H](CCC(=O)O)NC(=O)[C@H](C(C)(C)O)NC(=O)[C@H](CC3CCCCC3)NC(=O)[C@H](CCN)NC(=O)[C@@H](CC(C)C)NC(=O)[C@H](C)N(C)C(=O)[C@H](Cc3ccc(C(=O)O)cc3)NC(=O)[C@H](Cc3ccc(-c4ccccc4)cc3)NC(=O)[C@H](Cc3ccc(C(=O)O)cc3)NC2=O)c1 [Example 2495] ({CH2CO}-[4Pal][Phe(4-COOH)]D[Phe(3-Me)][Phe(4-COOH)][Bip][Phe(4-COOH)][NMeA][dL][Dab][Cha][Val(3-OH)]EC[Dab][AEEA][AEEA][Aun]-OH; thioether N-14)
